From patent US20230227484A1, “PYRIMIDINE COMPOUND AS AXL INHIBITOR” (NANJING CHIA TAI TIANQING PHARMACEUTICAL CO., LTD., priority 2020, published 2023)

target: T1, AXL kinase (Homo sapiens, UniProt P30530); assay: Inhibitory activity of compound against AXL kinase (HTRF KinEASE); assay type: biochemical; settings: AXL enzyme (Carna, 08-107), ATP 15 μM; "<" means below detection limit of the test
T1 construct: purchased Carna 08-107
T1 sequence (P30530 473-894 limits assumed): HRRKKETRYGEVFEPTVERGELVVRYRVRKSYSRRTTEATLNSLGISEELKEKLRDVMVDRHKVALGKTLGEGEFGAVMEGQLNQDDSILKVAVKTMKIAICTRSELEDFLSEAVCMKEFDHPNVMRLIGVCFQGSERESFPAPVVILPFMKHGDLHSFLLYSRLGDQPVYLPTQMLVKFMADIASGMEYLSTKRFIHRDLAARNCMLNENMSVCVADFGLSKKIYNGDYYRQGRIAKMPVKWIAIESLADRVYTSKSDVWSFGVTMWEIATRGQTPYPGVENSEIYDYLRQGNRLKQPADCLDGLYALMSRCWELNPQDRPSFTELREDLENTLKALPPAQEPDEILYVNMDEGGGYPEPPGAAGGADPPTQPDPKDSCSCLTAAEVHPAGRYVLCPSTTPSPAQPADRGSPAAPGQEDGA
Description: a) AXL enzyme (Carna, 08-107) configuration and addition: a 1×enzyme buffer (200 μL of Enzymatic buffer kinase 5×, 10 μL of 500 mM MgCl2, 10 μL of 100 mM DTT and 6.26 μL of 2500 nM SEB are added with […] of H2O, and prepared into 1 ml of 1× enzyme buffer) is used. AXL enzyme is diluted from 33.33 ng/uL to 0.027 ng/μL (1.67×, final conc.=0.016 ng/uL), a BioTek (MultiFlo FX) automatic liquid dispenser is used, and 6 μL of enzyme solution having a 1.67-fold final concentration is added respectively to compound wells and positive control wells; and 6 μL of 1×Enzymatic buffer is added to negative control wells.
b) Compound preparation and addition: the compounds and positive drugs prepared in the examples are diluted from 10 mM to 100 μM by DMSO, and titrated with a compound titrator (Tecan, D300e). The titrated solution is automatically sprayed by the titrator to each well to reach a required concentration, wherein the first concentration is 1 μM, and after ½ log dilution, a total of 8 concentrations are obtained. The resulting mixture is centrifuged at 2500 rpm for 30 s and incubated at room temperature for 15 min.
c) Preparation and addition of ATP and substrate: ATP (Sigma, A7699) is diluted with 1× enzyme buffer from 10 mM to 75 μM (5×), and the final concentration is 15 μM; the substrate TK Substrate 3-biotin (Cisbio, 61TK0BLC) is diluted with 1× enzyme buffer from 500 μM to 5 μM (5×), andthe final concentration is […]; ATP and the substrate are mixed in equal volume to obtain a mixed solution; the mixed solution is added to each well at 4 μL by using a BioTek automatic dispenser; centrifuged at 2500 rpm for 30 s, and reacted at 25° C. for 45 min.
d) Pirparation and addition of detection reagent: Streptavidin-XL665 (Cisbio, 610SAXLG) is diluted with HTRF KinEASE detection buffer (cisbio) from 16.67 μM to 250 nM (4×), and the final concentration is 62.5 nM; TK Antibody-Cryptate (Cisbio) is diluted with HTRF KinEASE detection buffer (cisbio) from 100× to 5×, and the final concentration is 1×; XL665 and Antibody are mixed in equal volume; the mixed solution is added to each well at 10 μL by using the BioTek automatic dispenser, centrifuged at 2500 rpm for 30 s, and reacted at 25° C. for 1 h. After the reaction is completed, the resulting product is detected by a multi-function plate reader HTR1p
GraphPad Prism 5 software log (inhibitor) vs. response-Variable slope is used to fit a dose-response curve to obtain the IC50 value of the compound to the inhibition of AXL kinase.
The calculation formula of the inhibition rate is as follows: […]

Compound	IC50
CN(C)S(=O)(=O)c1cccc(Nc2nc(Nc3ccc4c(c3)CC[C@@H](N3CCCC3)CC4)ncc2Cl)c1 [Example 2, (S)-3-((5-chloro-2-((7-(pyrrolidin-1-yl)-6,7,8,9-tetrahydro-5H-benzo[7]annulen-2-yl)amino)pyrimidin-4-yl)amino)-N,N-dimethyl benzenesulfonamide]	13.4 nM
CN(C)S(=O)(=O)c1ccc(Nc2nc(Nc3ccc4c(c3)CC[C@@H](N3CCCC3)CC4)ncc2Cl)cc1 [Example 3, (S)-4-((5-chloro-2-((7-(pyrrolidin-1-yl)-6,7,8,9-tetrahydro-5H-benzo[7]annulen-2-yl)amino)pyrimidin-4-yl)amino)-N,N-dimethyl benzenesulfonamide]	23.6 nM
O=S(=O)(c1ccccc1Nc1nc(Nc2ccc3c(c2)CC[C@@H](N2CCCC2)CC3)ncc1Cl)N1CCCC1 [Example 4, (S)-5-chloro-N^2-(7-(pyrrolidin-1-yl)-6,7,8,9-tetrahydro-5H-benzo[7]annulen-2-yl)-N^4-(2-(pyrrolidin-1-ylsulfo)phenyl)pyrimidine-2,4-diamine]	< 0.11 nM
O=S(=O)(c1cccc(Nc2nc(Nc3ccc4c(c3)CC[C@@H](N3CCCC3)CC4)ncc2Cl)c1)N1CCCC1 [Example 5, (S)-5-chloro-N^2-(7-(pyrrolidin-1-yl)-6,7,8,9-tetrahydro-5H-benzo[7]annulen-2-yl)-N^4-(3-(pyrrolidin-1-ylsulfo)phenyl)pyrimidine-2,4-diamine]	20.7 nM
CN(C)C(=O)c1occc1Nc1nc(Nc2ccc3c(c2)CC[C@@H](N2CCCC2)CC3)ncc1Cl [Example 7, (S)-3-((5-chloro-2-((7-(pyrrolidin-1-yl)-6,7,8,9-tetrahydro-5H-benzo[7]annulen-2-yl)amino)pyrimidin-4-yl)amino)-N,N-dimethylfuran-2-carboxamide]	7.74 nM
CC(C)Oc1ccccc1Nc1nc(Nc2ccc3c(c2)CC[C@@H](N2CCCC2)CC3)ncc1Cl [Example 8, (S)-5-chloro-4-(2-isopropoxyl)anilino-2-(7-(pyrrolidin-1-yl)-6,7,8,9-tetrahydro-5H-benzo[7]annulen-2-yl)pyrimidine]	8.28 nM
Clc1cnc(Nc2ccc3c(c2)CC[C@@H](N2CCCC2)CC3)nc1Nc1cccc2c1OCO2 [Example 9, (S)-4-(benzo[d][1,3]dioxo-4-yl)-5-chloro-2-(7-(pyrrolidin-1-yl)-6,7,8,9-tetrahydro-5H-benzo[7]annulen-2-yl)pyrimidine-2,4-diamine]	21.9 nM
N#CCc1cccc(Nc2nc(Nc3ccc4c(c3)CC[C@@H](N3CCCC3)CC4)ncc2Cl)c1 [Example 11, (S)-2-(3-((5-chloro-2-((7-(pyrrolidin-1-yl)-6,7,8,9-tetrahydro-5H-benzo[7]annulen-2-yl)amino)pyrimidin-4-yl)amino)phenyl)acetonitrile]	8.18 nM
Cc1cnc(-c2ccccc2Nc2nc(Nc3ccc4c(c3)CC[C@@H](N3CCCC3)CC4)ncc2Cl)o1 [Example 17, (S)-5-chloro-N^4-(2-(5-methyloxazol-2-yl)phenyl)-N^2-(7-(pyrrolidin-1-yl)-6,7,8,9-tetrahydro-5H-benzo[7]annulen-2-yl)pyrimidine-2,4-diamine]	27.9 nM
CNC(=O)c1cccnc1Nc1nc(Nc2ccc3c(c2)CC[C@@H](N2CCCC2)CC3)ncc1Cl [Example 21, (S)-2-((5-chloro-2-((7-(pyrrolidin-1-yl)-6,7,8,9-tetrahydro-5H-benzo[7]annulen-2-yl)amino)pyrimidin-4-yl)amino)-N-methylnicotinamide]	6.53 nM
CNC(=O)c1ncsc1Nc1nc(Nc2ccc3c(c2)CC[C@@H](N2CCCC2)CC3)ncc1Cl [Example 26, (S)-5-((5-chloro-2-((7-(pyrrolidin-1-yl)-6,7,8,9-tetrahydro-5H-benzo[7]annulen-2-yl)amino)pyrimidin-4-yl)amino)-N-methylthiazole-4-carboxamide]	7.21 nM
COC(=O)c1ccncc1Nc1nc(Nc2ccc3c(c2)CC[C@@H](N2CCCC2)CC3)ncc1Cl [Example 27]	19 nM

Now from value to compound:

IC50	Compound
96.8 nM	COCc1ccc(Nc2nc(Nc3ccc4c(c3)CCC(N3CC5CC3C5)CC4)ncc2Cl)c(P(C)(C)=O)c1 (single isomer, unassigned) [Example 116 Isomer 116-2, (2-((2-((7-(2-azabicyclo[2.1.1]hexan-2-yl)-6,7,8,9-tetrahydro-5H-benzo[7]annulen-2-yl)amino)-5-chloropyrimidin-4-yl)amino)-5-(methoxymethyl)phenyl)dimethyl phosphine oxide]
5.15 nM	CNC(=O)c1ncccc1Nc1nc(Nc2ccc3c(c2)CC[C@@H](N2CCCC2)CC3)ncc1Cl [Example 33, (S)-3-((5-chloro-2-((7-(pyrrolidin-1-yl)-6,7,8,9-tetrahydro-5H-benzo[7]annulen-2-yl)amino)pyrimidin-4-yl)amino)-N-methylpicolinamide]
1.21 nM	CNC(=O)c1cc(C(F)(F)F)ccc1Nc1nc(Nc2ccc3c(c2)CC[C@@H](N2CCCC2)CC3)ncc1Cl [Example 35, (S)-2-((5-chloro-2-((7-(pyrrolidin-1-yl)-6,7,8,9-tetrahydro-5H-benzo[7]annulen-2-yl)amino)pyrimidin-4-yl)amino)-N-methyl-5-(trifluoromethyl)benzamide]
6.24 nM	COCCNC(=O)c1ccccc1Nc1nc(Nc2ccc3c(c2)CC[C@@H](N2CCCC2)CC3)ncc1Cl [Example 38, (S)-2-((5-chloro-2-((7-(pyrrolidin-1-yl)-6,7,8,9-tetrahydro-5H-benzo[7]annulen-2-yl)amino)pyrimidin-4-yl)amino)-N-(2-methoxyethyl)benzamide]
14.6 nM	CNC(=O)c1c(Nc2nc(Nc3ccc4c(c3)CC[C@@H](N3CCCC3)CC4)ncc2Cl)cc[nH]c1=O [Example 42, (S)-4-((5-chloro-2-((7-(pyrrolidin-1-yl)-6,7,8,9-tetrahydro-5H-benzo[7]annulen-2-yl)amino)pyrimidin-4-yl)amino)-N-methyl-2-oxo-1,2-dihydropyridine-3-carboxamide]
9.87 nM	CNC(=O)c1cnc(OC)cc1Nc1nc(Nc2ccc3c(c2)CC[C@@H](N2CCCC2)CC3)ncc1Cl [Example 43, (S)-4-((5-chloro-2-((7-(pyrrolidin-1-yl)-6,7,8,9-tetrahydro-5H-benzo[7]annulen-2-yl)amino)pyrimidin-4-yl)amino)-6-methoxyl-N-methylnicotinamide]
1.47 nM	CNC(=O)c1c(Nc2nc(Nc3ccc4c(c3)CC[C@@H](N3CCCC3)CC4)ncc2Cl)ccnc1OC [Example 44, (S)-4-((5-chloro-2-((7-(pyrrolidin-1-yl)-6,7,8,9-tetrahydro-5H-benzo[7]annulen-2-yl)amino)pyrimidin-4-yl)amino)-2-methoxyl-N-methylnicotinamide]
0.42 nM	CNC(=O)c1c(Nc2nc(Nc3ccc4c(c3)CC[C@@H](N3CCCC3)CC4)ncc2Cl)ccc2nccnc12 [Example 48, (S)-6-((5-chloro-2-((7-(pyrrolidin-1-yl)-6,7,8,9-tetrahydro-5H-benzo[7]annulen-2-yl)amino)pyrimidin-4-yl)amino)-N-methylquinoxaline-5-carboxamide]
2.16 nM	CS(=N)(=O)c1ccccc1Nc1nc(Nc2ccc3c(c2)CC[C@@H](N2CCCC2)CC3)ncc1Cl (stereo partly drawn) [Example 50, (2-((5-chloro-2-(((S)-7-(pyrrolidin-1-yl)-6,7,8,9-tetrahydro-5H-benzo[7]annulen-2-yl)amino)pyrimidin-4-yl)amino)phenyl)(imino)(methyl)-λ^6-sulfanone]
3.1 nM	CP(C)(=O)c1cc(C#N)ccc1Nc1nc(Nc2ccc3c(c2)CC[C@@H](N2CCCC2)CC3)ncc1Cl [Example 54, (S)-4-((5-chloro-2-((7-(pyrrolidin-1-yl)-6,7,8,9-tetrahydro-5H-benzo[7]annulen-2-yl)amino)pyrimidin-4-yl)amino)-3-(dimethylphosphoryl)benzonitrile]
